# Assay results taken from US20200339625A1, “NOVEL RADIOMETAL-BINDING COMPOUNDS FOR DIAGNOSIS OR TREATMENT OF PROSTATE SPECIFIC MEMBRANE ANTIGEN-EXPRESSING CANCER” (PROVINCIAL HEALTH SERVICES AUTHORITY, priority 2017, published 2020).
# Legend:
# [1] = test system: mice bearing PSMA-expressing LNCAP cancer xenografts; test: Biodistribution of 68Ga-labeled compounds; assay type: in vivo
# Method: (§1) Imaging and biodistribution experiments were performed using NODSCID 1L2RyKO male mice. Mice were anesthetized by inhalation with 2% isoflurane in oxygen, and implanted subcutaneously with 1×10^7 LNCaP cells behind left shoulder. Mice were imaged or used in biodistribution studies when the tumor grew up to reach 5-8 mm in diameter during 5-6 weeks.
# For biodistribution studies, the mice were injected with the radiotracer as described above. At predetermined time points (1 or 3 h), the mice was anesthetized with 2% isoflurane inhalation, and euthanized by CO2 inhalation. Blood was withdrawn immediately from the heart, and the organs/tissues of interest were collected. The collected organs/tissues were weighed and counted using an automatic gamma counter. The uptake in each organ/tissue was normalized to the injected dose using a standard curve, and expressed as the percentage of the injected dose per gram of tissue (% ID/g).
# [2] = test system: mice bearing LNCaP tumor xenografts; test: PET/CT imaging of 68Ga-labeled compounds; assay type: in vivo; conditions: PET/CT images
# Method: 2.17 PET/CT Imaging and Biodistribution
# as §1
# PET imaging experiments were conducted using Siemens Inveon micro PET/CT scanner. Each tumor bearing mouse was injected 6-8 MBq of 68Ga-labeled tracer through the tail vein under anesthesia (2% isoflurane in oxygen). The mice were allowed to recover and roam freely in their cage. After 50 min, the mice were sedated again with 2% isoflurane in oxygen inhalation and positioned in the scanner. A 10-min CT scan was conducted first for localization and attenuation correction after segmentation for reconstructing the PET images. Then, a 10-min static PET imaging was performed to determined uptake in tumor and other organs. The mice were kept warm by a heating pad during acquisition. For imaging studies acquired at 3 h post-injection (p.i.), the mice were placed in the micro PET/CT scanner at 170 min p.i. Then, the CT acquisitions were conducted as described above, a 15-min static PET imaging was performed to determined uptake in tumor and other organs.
smiles,measurement,setting,value
O=C([O-])CN1CCN(CC(=O)[O-])CCN(CC(=O)NCCCC[C@H](NC(=O)CNC(=O)CCCc2ccc(I)cc2)C(=O)NC[C@H]2CC[C@H](C(=O)N[C@@H](Cc3ccc4ccccc4c3)C(=O)NCCCC[C@H](NC(=O)N[C@@H](CCC(=O)O)C(=O)O)C(=O)O)CC2)CCN(CC(=O)[O-])CC1.[68Ga+3] [^68Ga-HTK03024],Adrenal glands uptake,[1]; 1 h post-injection,4.32 ± 0.25 % ID/g
same,Blood uptake,[1]; 1 h post-injection,27.0 ± 5.63 % ID/g
same,Bone uptake,[1]; 1 h post-injection,1.26 ± 0.08 % ID/g
same,Brain uptake,[1]; 1 h post-injection,0.31 ± 0.04 % ID/g
same,Fat uptake,[1]; 1 h post-injection,1.83 ± 0.44 % ID/g
same,Heart uptake,[1]; 1 h post-injection,6.53 ± 1.30 % ID/g
same,Intestine uptake,[1]; 1 h post-injection,1.86 ± 0.06 % ID/g
same,Kidneys uptake,[1]; 1 h post-injection,9.11 ± 1.06 % ID/g
same,Lacrimal uptake,[1]; 1 h post-injection,0.93 ± 0.36 % ID/g
same,Liver uptake,[1]; 1 h post-injection,3.71 ± 0.38 % ID/g
same,Lungs uptake,[1]; 1 h post-injection,9.51 ± 0.55 % ID/g
same,Muscle uptake,[1]; 1 h post-injection,1.10 ± 0.18 % ID/g
same,Pancreas uptake,[1]; 1 h post-injection,1.86 ± 0.04 % ID/g
same,Salivary uptake,[1]; 1 h post-injection,3.31 ± 0.79 % ID/g
same,Seminal uptake,[1]; 1 h post-injection,1.27 ± 0.18 % ID/g
same,Spleen uptake,[1]; 1 h post-injection,2.72 ± 0.69 % ID/g
same,Stomach uptake,[1]; 1 h post-injection,0.64 ± 0.05 % ID/g
same,Tail uptake,[1]; 1 h post-injection,7.58 ± 4.49 % ID/g
same,Testes uptake,[1]; 1 h post-injection,2.98 ± 0.30 % ID/g
same,Thyroid uptake,[1]; 1 h post-injection,4.39 ± 0.01 % ID/g
same,Tumor uptake,[1]; 1 h post-injection,7.34 ± 0.10 % ID/g
same,Tumor:Blood ratio,[1]; 1 h post-injection,0.28 ± 0.05
same,Tumor:Muscle ratio,[1]; 1 h post-injection,6.74 ± 1.00
same,Tumor:kidney ratio,[1]; 1 h post-injection,0.81 ± 0.11
same,Urine uptake,[1]; 1 h post-injection,1.48 ± 0.71 % ID/g
same,Adrenal glands uptake,[1]; 3 h post-injection,6.37 ± 1.54 % ID/g
same,Blood uptake,[1]; 3 h post-injection,23.9 ± 1.03 % ID/g
same,Bone uptake,[1]; 3 h post-injection,1.66 ± 0.39 % ID/g
same,Brain uptake,[1]; 3 h post-injection,0.34 ± 0.02 % ID/g
same,Fat uptake,[1]; 3 h post-injection,3.53 ± 1.48 % ID/g
same,Heart uptake,[1]; 3 h post-injection,5.56 ± 0.43 % ID/g
same,Intestine uptake,[1]; 3 h post-injection,1.66 ± 0.14 % ID/g
same,Kidneys uptake,[1]; 3 h post-injection,12.3 ± 0.86 % ID/g
same,Lacrimal uptake,[1]; 3 h post-injection,3.57 ± 1.56 % ID/g
same,Liver uptake,[1]; 3 h post-injection,3.86 ± 0.63 % ID/g
same,Lungs uptake,[1]; 3 h post-injection,11.6 ± 0.82 % ID/g
same,Muscle uptake,[1]; 3 h post-injection,1.55 ± 0.15 % ID/g
same,Pancreas uptake,[1]; 3 h post-injection,1.86 ± 0.20 % ID/g
same,Salivary uptake,[1]; 3 h post-injection,4.66 ± 0.58 % ID/g
same,Seminal uptake,[1]; 3 h post-injection,1.63 ± 0.13 % ID/g
same,Spleen uptake,[1]; 3 h post-injection,2.62 ± 0.93 % ID/g
same,Stomach uptake,[1]; 3 h post-injection,0.70 ± 0.10 % ID/g
same,Tail uptake,[1]; 3 h post-injection,4.03 ± 0.43 % ID/g
same,Testes uptake,[1]; 3 h post-injection,3.07 ± 0.20 % ID/g
same,Thyroid uptake,[1]; 3 h post-injection,4.19 ± 0.48 % ID/g
same,Tumor uptake,[1]; 3 h post-injection,15.0 ± 2.19 % ID/g
same,Tumor:Blood ratio,[1]; 3 h post-injection,0.63 ± 0.11
same,Tumor:Muscle ratio,[1]; 3 h post-injection,9.69 ± 1.51
same,Tumor:kidney ratio,[1]; 3 h post-injection,1.21 ± 0.10
same,Urine uptake,[1]; 3 h post-injection,3.68 ± 1.74 % ID/g
CCCCCCC(NC(=O)C1CCC(CNC(=O)CN2CCN(CC(=O)[O-])CCN(CC(=O)[O-])CCN(CC(=O)[O-])CC2)CC1)C(=O)NCCCCC(NC(=O)NC(CCC(=O)O)C(=O)O)C(=O)O.[68Ga+3] (centres unmarked) [^68Ga-HTK03026],Adrenal glands uptake,[1]; 1 h post-injection,1.84 ± 0.95 % ID/g
same,Blood uptake,[1]; 1 h post-injection,0.70 ± 0.19 % ID/g
same,Bone uptake,[1]; 1 h post-injection,0.54 ± 0.20 % ID/g
same,Brain uptake,[1]; 1 h post-injection,0.06 ± 0.02 % ID/g
same,Fat uptake,[1]; 1 h post-injection,0.45 ± 0.11 % ID/g
same,Heart uptake,[1]; 1 h post-injection,0.30 ± 0.06 % ID/g
same,Intestine uptake,[1]; 1 h post-injection,0.29 ± 0.06 % ID/g
same,Kidneys uptake,[1]; 1 h post-injection,68.5 ± 28.2 % ID/g
same,Lacrimal uptake,[1]; 1 h post-injection,1.33 ± 0.90 % ID/g
same,Liver uptake,[1]; 1 h post-injection,0.24 ± 0.06 % ID/g
same,Lungs uptake,[1]; 1 h post-injection,0.82 ± 0.26 % ID/g
same,Muscle uptake,[1]; 1 h post-injection,0.28 ± 0.13 % ID/g
same,Pancreas uptake,[1]; 1 h post-injection,0.71 ± 1.04 % ID/g
same,Salivary uptake,[1]; 1 h post-injection,0.83 ± 0.22 % ID/g
same,Seminal uptake,[1]; 1 h post-injection,0.43 ± 0.31 % ID/g
same,Spleen uptake,[1]; 1 h post-injection,1.34 ± 0.54 % ID/g
same,Stomach uptake,[1]; 1 h post-injection,0.10 ± 0.03 % ID/g
same,Tail uptake,[1]; 1 h post-injection,0.90 ± 0.56 % ID/g
same,Testes uptake,[1]; 1 h post-injection,0.35 ± 0.22 % ID/g
same,Thyroid uptake,[1]; 1 h post-injection,0.35 ± 0.08 % ID/g
same,Tumor uptake,[1]; 1 h post-injection,12.5 ± 2.90 % ID/g
same,Tumor:Blood ratio,[1]; 1 h post-injection,18.6 ± 5.54
same,Tumor:Muscle ratio,[1]; 1 h post-injection,52.8 ± 24.9
same,Tumor:kidney ratio,[1]; 1 h post-injection,0.22 ± 0.15
same,Urine uptake,[1]; 1 h post-injection,575 ± 245 % ID/g
same,excretion pathway,[2],excreted mainly via the renal pathway
same,tumor uptake (qualitative comparison),[2]; compounds of FIG. 13,comparable
